Results reported in article PMC5708337 (2017).

Experiments:
[1] = system: hTeloCBiotin (DNA, i motif) TAACCCTAACCCTAACCCTAACCC; assay: SPR, single concentration; conditions: Na+ (100 mM NaCl, 10 mM sodium cacodylate), pH 5.5, 0.05% Tween-20, 5% DMSO, 50 μM compound; for binding: NB
[2] = system: c-MycCBiotin (DNA, i motif) CCTTCCCCACCCTCCCCACCCTCCCCA; assay: SPR, single concentration; conditions: Na+ (100 mM NaCl, 10 mM sodium cacodylate); pH 5.5, 0.05% Tween-20, 5% DMSO; 50 μM compound
[3] = system: DSbiotin (DNA, duplex) GGCATAGTGCGTGGGCGTTAGC/GCTAACGCCCACGCACTATGCC; assay: SPR, single concentration; conditions: Na+ (100 mM NaCl, 10 mM sodium cacodylate); pH 5.5, 0.05% Tween-20, 5% DMSO; 50 μM compound
[4] = system: hTeloC (DNA, i motif) TAACCCTAACCCTAACCCTAACCC; assay: fluorescent intercalator displacement; conditions: Na+ (10 mM sodium cacodylate); pH 5.5; thiazole orange 2 μM displaced; 1 μM DNA
[5] = system: hTeloCBiotin (DNA, i motif) TAACCCTAACCCTAACCCTAACCC; assay: SPR; conditions: Na+ (100 mM NaCl, 10 mM sodium cacodylate); pH 5.5, 0.05% Tween-20, 5% DMSO
[6] = system: c-MycCBiotin (DNA, i motif) CCTTCCCCACCCTCCCCACCCTCCCCA; assay: SPR; conditions: Na+ (100 mM NaCl, 10 mM sodium cacodylate); pH 5.5, 0.05% Tween-20, 5% DMSO
[7] = system: DSbiotin (DNA, duplex) GGCATAGTGCGTGGGCGTTAGC/GCTAACGCCCACGCACTATGCC; assay: SPR; conditions: Na+ (100 mM NaCl, 10 mM sodium cacodylate); pH 5.5, 0.05% Tween-20, 5% DMSO

| binding [1] | %Rmax [2] [%] | %Rmax [3] [%] | %Rmax [1] [%] | DC50 [4] [µM] | Kd [5] [µM] | Kd [6] [µM] | Kd [7] [µM] | SMILES |
| --- | --- | --- | --- | --- | --- | --- | --- | --- |
| no | 49 | 95 | – | – | – | – | – | O=C1c2ccc(O)c(O)c2C(=O)c2c(O)ccc(O)c21 |
| – | 420 | 811 | 116 | 2.4 | – | – | – | CCN(CC)CCOc1ccc2c(c1)C(=O)c1cc(OCCN(CC)CC)ccc1-2 |
| – | 36 | 69 | 29 | – | – | – | – | CN(C)c1ccc(O)c2c1C[C@H]1C[C@H]3[C@H](N(C)C)C(O)=C(C(N)=O)C(=O)[C@@]3(O)C(O)=C1C2=O |
| – | 2534 | 4894 | 2125 | 1.8 | – | – | – | O=C1c2c(O)ccc(O)c2C(=O)c2c(NCCNCCO)ccc(NCCNCCO)c21 |

Second part, the compound before the results:

| SMILES | binding [1] | %Rmax [2] [%] | %Rmax [3] [%] | %Rmax [1] [%] | DC50 [4] [µM] | Kd [5] [µM] | Kd [6] [µM] | Kd [7] [µM] |
| --- | --- | --- | --- | --- | --- | --- | --- | --- |
| CC1=NCCc2c1[nH]c1cc(O)ccc21 | no | 64 | 123 | – | – | – | – | – |
| CCN(CC)Cc1cc(Nc2ccnc3cc(Cl)ccc23)ccc1O | – | 31 | 59 | 15 | – | – | – | – |
| NC[C@H]1O[C@H](O[C@H]2[C@H](O)[C@@H](O[C@H]3O[C@H](CO)[C@@H](O)[C@H](N)[C@H]3O)[C@H](N)C[C@@H]2N)[C@H](N)C[C@@H]1O | – | 121 | 233 | 325 | 2.9 | 17 ± 2.0 | 13 ± 1.8 | 18 ± 1.1 |
| Nc1ccc(N=Nc2ccccc2)c(N)n1 | – | 71 | 137 | 38 | – | – | – | – |
